Test results as given in US6239138A, “Vitronectin receptor antagonist” (SmithKline Beecham Corporation, priority 1999, dated 2001).
pKi: −log10 of the molar value.

Key:
osteoclasts = conditions: Sato et al. 1990 (echistatin); Bertolini et al. (cyclic peptide); cited from earlier work
bone resorption [1] = conditions: rat; Fisher et al., Endocrinology 1993; cited from earlier work
bone resorption [2] = conditions: Sato et al., J. Cell Biol. 1990; cited from earlier work
[3] = molecular target: T1, αvβ3 (vitronectin receptor) (Homo sapiens, UniProt P05106+P06756); experiment: Solid-phase [3H]-SK&F-107260 binding to αvβ3 (inhibition of vitronectin binding); conditions: [3H]-SK&F-107260 as ligand, 5.0 nM; human placenta or platelet αvβ3
T1 construct: Human placenta or human platelet αvβ3; from tissue; host or cells: human placenta or human platelets
Description: Solid-Phase [^3 H]-SK&F-107260 Binding to αvβ3 : Human placenta or human platelet αvβ3 (0.1-0.3 mg/mL) in buffer T (containing 2 mM CaCl2 and 1% octylglucoside) was diluted with buffer T containing 1 mM CaCl2, 1 mM MnCl2, 1 mM MgCl2 (buffer A) and 0.05% NaN3, and then immediately added to 96-well ELISA plates (Corning, New York, N.Y.) at 0.1 mL per well. 0.1-0.2 ,g of αvβ3 was added per well. The plates were incubated overnight at 4° C. At the time of the experiment, the wells were washed once with buffer A and were incubated with 0.1 mL of 3.5% bovine serum albumin in the same buffer for 1 hr at room temperature. Following incubation the wells were aspirated completely and washed twice with 0.2 mL buffer A. […]
The plates were incubated for 1 hr at room temperature. […] The receptors were solubilized with 0.1 mL of 1% SDS and the bound [^3 H]-SK&F-107260 was determined by liquid scintillation counting with the addition of 3 mL Ready Safe in a Beckman LS Liquid Scintillation Counter, with 40% efficiency. Nonspecific binding of [^3 H]-SK&F-107260 was determined in the presence of 2 LM SK&F-107260 and was consistently less than 1% of total radioligand input. […] The Ki (dissociation constant of the antagonist) was calculated according to the equation: Ki =IC50 /(1+L/Kd), where L and Kd were the concentration and the dissociation constant of [^3 H]-SK&F-107260, respectively.

T1 sequence (P06756 31-889 limits assumed): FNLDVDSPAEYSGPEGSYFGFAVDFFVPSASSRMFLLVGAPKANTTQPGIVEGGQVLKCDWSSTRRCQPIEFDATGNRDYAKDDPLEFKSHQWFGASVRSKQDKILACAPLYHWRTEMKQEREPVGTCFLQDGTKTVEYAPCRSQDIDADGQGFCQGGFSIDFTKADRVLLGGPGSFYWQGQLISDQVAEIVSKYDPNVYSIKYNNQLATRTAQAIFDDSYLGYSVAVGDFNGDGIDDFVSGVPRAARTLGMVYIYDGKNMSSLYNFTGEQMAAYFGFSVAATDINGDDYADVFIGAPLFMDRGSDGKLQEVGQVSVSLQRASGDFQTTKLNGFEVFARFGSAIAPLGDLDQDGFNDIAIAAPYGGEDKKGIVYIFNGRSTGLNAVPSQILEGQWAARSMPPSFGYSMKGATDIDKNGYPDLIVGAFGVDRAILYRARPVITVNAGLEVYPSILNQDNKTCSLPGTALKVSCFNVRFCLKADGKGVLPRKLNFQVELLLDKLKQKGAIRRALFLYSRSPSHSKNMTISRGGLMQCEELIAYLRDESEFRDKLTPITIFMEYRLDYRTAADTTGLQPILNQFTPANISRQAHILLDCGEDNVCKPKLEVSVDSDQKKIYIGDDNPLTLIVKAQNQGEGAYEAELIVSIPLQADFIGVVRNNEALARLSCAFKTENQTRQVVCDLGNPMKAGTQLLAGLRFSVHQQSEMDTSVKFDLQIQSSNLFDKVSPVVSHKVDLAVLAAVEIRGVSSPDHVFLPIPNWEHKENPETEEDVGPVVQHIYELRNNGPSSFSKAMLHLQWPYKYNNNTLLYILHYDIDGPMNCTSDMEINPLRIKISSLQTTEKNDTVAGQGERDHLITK
T1 sequence (P06756 891-1048 partner limits assumed): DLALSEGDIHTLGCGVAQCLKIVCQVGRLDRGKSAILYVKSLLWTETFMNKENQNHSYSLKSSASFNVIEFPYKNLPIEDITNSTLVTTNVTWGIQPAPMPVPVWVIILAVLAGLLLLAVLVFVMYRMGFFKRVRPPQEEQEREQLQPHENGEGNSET
T1 sequence (P05106 27-788): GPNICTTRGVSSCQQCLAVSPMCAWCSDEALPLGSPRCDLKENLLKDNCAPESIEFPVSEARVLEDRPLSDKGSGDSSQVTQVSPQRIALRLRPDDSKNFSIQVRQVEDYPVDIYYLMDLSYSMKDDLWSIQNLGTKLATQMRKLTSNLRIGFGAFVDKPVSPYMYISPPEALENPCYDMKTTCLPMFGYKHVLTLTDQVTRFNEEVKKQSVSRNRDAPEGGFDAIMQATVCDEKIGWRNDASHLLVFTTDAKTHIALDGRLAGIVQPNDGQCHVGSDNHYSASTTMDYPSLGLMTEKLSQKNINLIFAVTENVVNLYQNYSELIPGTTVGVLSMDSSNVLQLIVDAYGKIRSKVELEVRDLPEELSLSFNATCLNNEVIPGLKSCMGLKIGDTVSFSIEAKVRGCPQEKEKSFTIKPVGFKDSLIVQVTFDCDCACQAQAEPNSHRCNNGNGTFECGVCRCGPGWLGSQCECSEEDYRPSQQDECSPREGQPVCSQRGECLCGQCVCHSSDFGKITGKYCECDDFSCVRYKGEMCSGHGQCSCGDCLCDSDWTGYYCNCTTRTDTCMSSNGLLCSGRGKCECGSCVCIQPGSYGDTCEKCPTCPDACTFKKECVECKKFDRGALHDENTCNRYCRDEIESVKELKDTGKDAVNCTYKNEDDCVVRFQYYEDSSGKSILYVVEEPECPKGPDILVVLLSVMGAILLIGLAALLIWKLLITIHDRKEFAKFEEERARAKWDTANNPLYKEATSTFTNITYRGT

| Compound | inhibition of attachment of osteoclasts to bone (osteoclasts) | inhibition of bone resorption in vivo (bone resorption [1]) | inhibition of bone resorption in tissue culture (bone resorption [2]) | pKi [3] |
| --- | --- | --- | --- | --- |
| cylco-S,S-N^α -acetyl-cysteinyl-N^α -methyl-argininyl-glycyl-aspartyl-penicillamine | inhibits osteoclast attachment to bone |  |  |  |
| echistatin | inhibits attachment of osteoclasts to bone | inhibits bone resorption in vivo in the rat | potent inhibitor of bone resorption in tissue culture |  |
| O=C(O)CC1Cc2ccc(OCCCNc3ccccn3)cc2CCC1=O (racemic) [(±)-2-(2-Pyridylamino)propoxy-6,7,8,9-tetrahydro-7-oxo-5H-benzocycloheptenyl-6-acetic acid] |  |  |  | ~7.64 |
